PubChem BioAssay (NCI)
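A five-concentration, 48-hour dose response in 96-well plates underlies each endpoint, interpolated linearly between surrounding concentrations. The concentration for full growth arrest is given as TGI.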

What was measured:
Assay in all cases: NCI anticancer screen, dose series, 48 h
[1] = tested on: HCT-116 colon
[2] = tested on: RPMI-8226 leukemia
[3] = tested on: SK-OV-3 ovarian
[4] = tested on: RXF 393 renal
[5] = tested on: EKVX NSCLC
[6] = tested on: A498 renal
[7] = tested on: NCI-H522 lung
[8] = tested on: HOP-62 NSCLC
[9] = tested on: NCI-H226 lung
[10] = tested on: CCRF-CEM leukemia
[11] = tested on: UACC-62 melanoma
[12] = tested on: LOX IMVI melanoma
[13] = tested on: NCI-H23 lung
[14] = tested on: KM12 colon
[15] = tested on: 786-0 renal
[16] = tested on: MOLT-4 leukemia
[17] = tested on: OVCAR-3 ovarian
[18] = tested on: HOP-92 NSCLC
[19] = tested on: UO-31 renal
[20] = tested on: CAKI-1 renal
[21] = tested on: MALME-3M melanoma
[22] = tested on: HCT-15 colon
[23] = tested on: M14 melanoma
[24] = tested on: DLD-1 colon
[25] = tested on: HL-60(TB) leukemia
[26] = tested on: LXFL 529 NSCLC
[27] = tested on: NCI-H460 lung
[28] = tested on: HOP-18 NSCLC
[29] = tested on: UACC-257 melanoma
[30] = tested on: TK-10 renal
[31] = tested on: HCC-2998 colon
[32] = tested on: A549 NSCLC
[33] = tested on: COLO 205 colon
[34] = tested on: ACHN renal
[35] = tested on: DMS 273 small cell lung
[36] = tested on: K-562 leukemia
[37] = tested on: XF 498 CNS
[38] = tested on: U251 CNS
[39] = tested on: IGROV1 ovarian
[40] = tested on: OVCAR-4 ovarian
[41] = tested on: SW-620 colon
[42] = tested on: KM20L2 colon
[43] = tested on: SNB-19 CNS
[44] = tested on: RXF-631 renal
[45] = tested on: SF-268 CNS
[46] = tested on: OVCAR-5 ovarian
[47] = tested on: SR leukemia
[48] = tested on: OVCAR-8 ovarian
[49] = tested on: SNB-78 CNS
[50] = tested on: DMS 114 small cell lung
[51] = tested on: SN12C renal
[52] = tested on: M19-MEL melanoma
[53] = tested on: SK-MEL-28 melanoma
[54] = tested on: SK-MEL-5 melanoma
[55] = tested on: HT29 colon
[56] = tested on: SF-539 CNS

Measured: TGI

Cc1cc(Br)cc(C)c1NC(=O)C(=O)C(C(=O)c1ccncc1)C1OC(=O)c2ccccc21 (centres undefined)
not listed: [52] | [53] | [54] | [55] | [56]
> 100 µM: all other assays above

O=C1NC(=O)C(=Cc2c3ccccc3cc3ccccc23)C(=O)N1
not listed: [5] | [9] | [14] | [17] | [21] | [24] | [29] | [31] | [40] | [46] | [47] | [49] | [50]
> 100 µM: all other assays above
